{"source": "patent US6716459B2", "about": "“Composition for inhibiting increase of blood sugar level or lowering blood sugar level” (priority 1998, dated 2004)", "origin": "cited, not measured here", "system": "Ehrlich Ascites Tumour Cells", "conditions": "in vitro, Chem. Pharm. Bull. 41(12) 2129-2131 (1993)", "data": [{"smiles": "C[C@H]1[C@H](C)CC[C@]2(C(=O)O)CC[C@]3(C)C(=CC[C@@H]4[C@@]5(C)C[C@@H](O)[C@H](O)C(C)(C)[C@@H]5CC[C@]43C)[C@H]12", "note": "[corosolic acid]", "values": [{"measurement": "activity on the mobility of grape sugar", "result": "activates the mobility of grape sugar"}]}]}
